Activity data for 14 compounds are collected here from patent US7074605B2 (The Curators of the University of Missouri, priority 1997, dated 2006).

For this assay, the target named is Clostridium perfringens α-N-acetylgalactosaminidase (Clostridium perfringens, UniProt I1SB20). The class given is biochemical.
Chain of Clostridium perfringens α-N-acetylgalactosaminidase (I1SB20 1-629 limits assumed): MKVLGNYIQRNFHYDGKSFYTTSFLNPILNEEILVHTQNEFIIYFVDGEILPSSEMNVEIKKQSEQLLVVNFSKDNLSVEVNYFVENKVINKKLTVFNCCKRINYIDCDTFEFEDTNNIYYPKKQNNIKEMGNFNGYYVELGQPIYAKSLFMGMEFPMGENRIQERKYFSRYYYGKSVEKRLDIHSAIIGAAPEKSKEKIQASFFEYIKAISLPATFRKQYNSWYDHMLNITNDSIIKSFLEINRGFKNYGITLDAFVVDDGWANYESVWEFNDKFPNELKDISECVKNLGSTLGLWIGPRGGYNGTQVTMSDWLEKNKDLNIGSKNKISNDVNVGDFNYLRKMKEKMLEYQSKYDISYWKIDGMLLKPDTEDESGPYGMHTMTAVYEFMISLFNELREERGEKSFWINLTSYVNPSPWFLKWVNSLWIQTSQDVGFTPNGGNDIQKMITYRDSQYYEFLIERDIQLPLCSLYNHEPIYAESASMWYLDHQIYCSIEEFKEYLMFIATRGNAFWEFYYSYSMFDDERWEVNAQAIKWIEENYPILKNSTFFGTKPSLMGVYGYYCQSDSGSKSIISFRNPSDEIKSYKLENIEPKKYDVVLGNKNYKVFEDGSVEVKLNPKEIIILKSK
`CC(=O)NC1C(O)CC(Oc2ccc3c(C)cc(=O)oc3c2)(C(=O)O)OC1C(O)C(O)CO` (stereo not drawn) [4MU-N-acetyl-α-neuraminic acid] registered an Activity of under 0.001 U/ml.

For `Cc1cc(=O)oc2cc(O[C@@H]3O[C@H](CO)[C@H](O)[C@H](O)[C@H]3O)ccc12` [4MU-α-D-galactopyranoside], the Activity was under 0.001 U/ml.

In the case of `CC(=O)N[C@H]1[C@@H](Oc2ccc([N+](=O)[O-])cc2)O[C@H](CO)[C@H](O)[C@@H]1O` [PNP-N-acetyl-α-D-galactosaminide], the Activity turned out to be 0.334 U/ml.

As for `CC(=O)N[C@H]1[C@@H](Oc2ccc([N+](=O)[O-])cc2)O[C@H](CO)[C@@H](O)[C@@H]1O` [PNP-N-acetyl-α-D-glucosaminide], the Activity was under 0.001 U/ml.

`CC(=O)N[C@H]1[C@H](Oc2ccc([N+](=O)[O-])cc2)O[C@H](CO)[C@H](O)[C@@H]1O` [PNP-N-acetyl-β-D-galactosaminide] gave an Activity of under 0.001 U/ml.

As to `CC(=O)N[C@H]1[C@H](Oc2ccc([N+](=O)[O-])cc2)O[C@H](CO)[C@@H](O)[C@@H]1O` [PNP-N-acetyl-β-D-glucosaminide], the Activity was under 0.001 U/ml.

In the case of `O=[N+]([O-])c1ccc(O[C@H]2O[C@H](CO)[C@H](O)[C@H](O)[C@H]2O)cc1` [PNP-α-D-galactopyranoside], the Activity is listed as under 0.001 U/ml.

In turn, `O=[N+]([O-])c1ccc(O[C@H]2O[C@H](CO)[C@@H](O)[C@H](O)[C@H]2O)cc1` [PNP-α-D-glucopyranoside] displayed an Activity of under 0.001 U/ml.

As to `O=[N+]([O-])c1ccc(O[C@H]2O[C@H](CO)[C@@H](O)[C@H](O)[C@@H]2O)cc1` [PNP-α-D-mannopyranoside], the Activity is recorded as under 0.001 U/ml.

On to `O=[N+]([O-])c1ccc(O[C@@H]2OC[C@H](O)[C@H](O)[C@H]2O)cc1` [PNP-α-L-arabinopyranoside], for which the Activity is on record as under 0.001 U/ml.

Take `C[C@@H]1O[C@@H](Oc2ccc([N+](=O)[O-])cc2)[C@@H](O)[C@H](O)[C@@H]1O` [PNP-α-L-fucopyranoside]: the Activity is under 0.001 U/ml.

Compound `O=[N+]([O-])c1ccc(O[C@@H]2O[C@H](CO)[C@H](O)[C@H](O)[C@H]2O)cc1` [PNP-β-D-galactopyranoside] returned an Activity of under 0.001 U/ml.

For `O=[N+]([O-])c1ccc(O[C@@H]2O[C@H](CO)[C@@H](O)[C@H](O)[C@H]2O)cc1` [PNP-β-D-glucopyranoside], the Activity is listed as under 0.001 U/ml.

In turn, `C[C@@H]1O[C@H](Oc2ccc([N+](=O)[O-])cc2)[C@@H](O)[C@H](O)[C@@H]1O` [PNP-β-L-fucopyranoside] yielded an Activity of under 0.001 U/ml.
